Experimental data taken from patent US11767341B2, “Lincosamide antibiotics and uses thereof” (President and Fellows of Harvard College, priority 2017, dated 2023).
≈ marks a conversion by molar mass, not a printed value. Read-outs that look alike come from different tables or passages of the source.

Legend:
Test in all cases: MIC determination
Format in all cases: cell-based
S. aureus MMX 3035 cErmA = settings: Staphylococcus aureus, MMX3035CERMA; S. aureus MMX 3035 cErmA; read-out: MIC
K. pneumoniae ATCC 10031 = settings: Klebsiella pneumoniae, ATCC10031
[1] = tested on: S. pyogenes MMX 946 Macrolide-Resistant; settings: Streptococcus pyogenes
[2] = tested on: E. coli MP-74 LptD mutant; settings: Escherichia coli
E. coli MP-9 ΔTolC = settings: Escherichia coli
S. pneumoniae ATCC 49619 = settings: Streptococcus pneumoniae, ATCC49619
S. aureus BAA 977 iErmA = settings: Staphylococcus aureus, BAA977
[3] = tested on: E. faecalis MMX 847 Macrolide-Resistant; settings: Enterococcus faecalis, read-out: MIC
E. coli ATCC 25922 = settings: Escherichia coli, ATCC25922, E. coli ATCC 25922; read-out: MIC
S. pyogenes ATCC 19615 = settings: Streptococcus pyogenes, ATCC19615; S. pyogenes ATCC 19615; read-out: MIC
[4] = tested on: S. pneumoniae MMX 3031 cMefA; settings: Streptococcus pneumoniae, MMX3031CMEFA
S. aureus ATCC 29213 = tested on: S. aureus ATCC 29213
E. faecalis ATCC 29212 = settings: Enterococcus faecalis, ATCC29212, read-out: MIC
[5] = tested on: S. aureus MP-549 msr(a) USA 300; settings: Staphylococcus aureus, USA300, S. aureus MP-549 msr(a) USA 300
[6] = tested on: S. pneumoniae MMX 3028 cErmB; settings: Streptococcus pneumoniae, MMX3028CERMB
H. influenzae ATCC 49247 = settings: Haemophilus influenzae, ATCC49247
[7] = K. pneumoniae ATCC 10031, read-out: MIC
[8] = S. pneumoniae ATCC 49619, read-out: MIC
[9] = E. faecalis MMX 847 Macrolide-Resistant (MacRes)
[10] = Staphylococcus aureus, ATCC29213, S. aureus ATCC 29213, read-out: MIC
[11] = S. pneumoniae MMX 3028 cErmB, read-out: MIC
[12] = S. pyogenes MMX 946 MacRes, read-out: MIC
[13] = H. influenzae ATCC 49247, read-out: MIC

Structure (SMILES) | MIC (S. aureus MMX 3035 cErmA) | MIC (K. pneumoniae ATCC 10031; [7]) | MIC [2] | MIC (E. coli MP-9 ΔTolC) | MIC (S. pneumoniae ATCC 49619; [8]) | MIC (S. aureus BAA 977 iErmA) | MIC (E. coli ATCC 25922) | MIC (S. pyogenes ATCC 19615) | MIC [4] | MIC (S. aureus ATCC 29213; [10]) | MIC (E. faecalis ATCC 29212) | MIC [5] | MIC [6, 11] | MIC (H. influenzae ATCC 49247; [13]) | other results
CSC1O[C@H]([C@H](NC(=O)[C@H]2NC[C@@H]3CC=CCO[C@H]32)[C@H](C)Sc2ccc(-c3cccnc3)cc2)C(O)[C@@H](O)[C@H]1O (stereo partly drawn) [FSA-213061] | 64 µg/mL (≈ 109 µM) | 32 µg/mL (≈ 54.4 µM) | 8 µg/mL (≈ 13.6 µM) | 8 µg/mL (≈ 13.6 µM) | ≤ 0.06 µg/mL | 0.25 µg/mL (≈ 0.425 µM) | > 64 µg/mL | ≤ 0.06 µg/mL | 0.125 µg/mL (≈ 0.213 µM) | 0.25 µg/mL (≈ 0.425 µM) | 16 µg/mL (≈ 27.2 µM) | 0.5 µg/mL (≈ 0.851 µM) | 8 µg/mL (≈ 13.6 µM) | – | MIC ([1]; S. pyogenes MMX 946 Macrolide-Resistant (MacRes), read-out: MIC): 4 µg/mL (≈ 6.81 µM); MIC [3, 9]: > 64 µg/mL
CSC1O[C@H]([C@H](NC(=O)[C@H]2NC[C@@H]3C[C@@H](c4ccc(C(F)(F)F)cc4)CCO[C@H]32)[C@H](C)Cl)C(O)[C@@H](O)[C@H]1O (stereo partly drawn) [FSA-509019] | 64 µg/mL (≈ 110 µM) | – | 32 µg/mL (≈ 54.9 µM) | 16 µg/mL (≈ 27.4 µM) | ≤ 0.06 µg/mL | 0.25 µg/mL (≈ 0.429 µM) | – | ≤ 0.06 µg/mL | 0.125 µg/mL (≈ 0.214 µM) | ≤ 0.06 µg/mL | 1 µg/mL (≈ 1.72 µM) | – | – | – | MIC (K. pneumoniae ATCC 10031): 16 µg/mL (≈ 27.4 µM); MIC [1]: 32 µg/mL (≈ 54.9 µM); MIC [3, 9]: 64 µg/mL (≈ 110 µM); MIC [6]: 16 µg/mL (≈ 27.4 µM)
CSC1O[C@H]([C@H](NC(=O)[C@H]2NC[C@@H]3C[C@@H](CCc4ccccc4)CCO[C@H]32)[C@H](C)Cl)C(O)[C@@H](O)[C@H]1O (stereo partly drawn) [FSA-510021] | 4 µg/mL (≈ 7.36 µM) | 4 µg/mL (≈ 7.36 µM) | 4 µg/mL (≈ 7.36 µM) | 4 µg/mL (≈ 7.36 µM) | ≤ 0.06 µg/mL | 0.125 µg/mL (≈ 0.23 µM) | 64 µg/mL (≈ 118 µM) | ≤ 0.06 µg/mL | ≤ 0.06 µg/mL | 0.125 µg/mL (≈ 0.23 µM) | 0.25 µg/mL (≈ 0.46 µM) | 0.125 µg/mL (≈ 0.23 µM) | 4 µg/mL (≈ 7.36 µM) | 1 µg/mL (≈ 1.84 µM) | MIC [1, 12]: 1 µg/mL (≈ 1.84 µM); MIC ([3]; E. faecalis MMX 847 MacRes): 4 µg/mL (≈ 7.36 µM)
CSC1O[C@H]([C@H](NC(=O)[C@H]2NC[C@@H]3C[C@@H](CCc4cccc(F)c4)CCO[C@H]32)[C@H](C)Cl)C(O)[C@@H](O)[C@H]1O (stereo partly drawn) [FSA-510022] | 2 µg/mL (≈ 3.56 µM) | 2 µg/mL (≈ 3.56 µM) | 4 µg/mL (≈ 7.13 µM) | 4 µg/mL (≈ 7.13 µM) | ≤ 0.06 µg/mL | 0.12 µg/mL (≈ 0.214 µM) | 32 µg/mL (≈ 57 µM) | ≤ 0.06 µg/mL | ≤ 0.06 µg/mL | 0.12 µg/mL (≈ 0.214 µM) | 0.25 µg/mL (≈ 0.446 µM) | 0.12 µg/mL (≈ 0.214 µM) | 4 µg/mL (≈ 7.13 µM) | 1 µg/mL (≈ 1.78 µM) | MIC [1, 12]: 0.5 µg/mL (≈ 0.891 µM); MIC ([3]; E. faecalis MMX 847 MacRes): 2 µg/mL (≈ 3.56 µM)
CSC1O[C@H]([C@H](NC(=O)[C@H]2NC[C@@H]3CC(c4ccc(C)cc4)CCO[C@H]32)[C@H](C)Cl)C(O)[C@@H](O)[C@H]1O (stereo partly drawn) [FSA-511044] | – | 32 µg/mL (≈ 60.5 µM) | 16 µg/mL (≈ 30.2 µM) | 16 µg/mL (≈ 30.2 µM) | – | – | > 64 µg/mL | ≤ 0.06 µg/mL | – | 0.25 µg/mL (≈ 0.473 µM) | 2 µg/mL (≈ 3.78 µM) | 0.5 µg/mL (≈ 0.945 µM) | – | – | MIC (S. pneumoniae ATCC 49619): 0.5 µg/mL (≈ 0.945 µM); MIC (H. influenzae ATCC 49247): 16 µg/mL (≈ 30.2 µM)
COc1ccc(C2CCO[C@@H]3[C@H](CN[C@@H]3C(=O)N[C@H]([C@H](C)Cl)[C@H]3OC(SC)[C@H](O)C(O)C3O)C2)cc1 (stereo partly drawn) [FSA-511045] | – | 16 µg/mL (≈ 29.4 µM) | 32 µg/mL (≈ 58.7 µM) | 8 µg/mL (≈ 14.7 µM) | ≤ 0.06 µg/mL | – | > 64 µg/mL | ≤ 0.06 µg/mL | – | – | 1 µg/mL (≈ 1.83 µM) | 0.25 µg/mL (≈ 0.459 µM) | – | 16 µg/mL (≈ 29.4 µM) | MIC (S. aureus ATCC 29213; Staphylococcus aureus, ATCC29213): 0.5 µg/mL (≈ 0.917 µM)
CSC1O[C@H]([C@H](NC(=O)[C@H]2NC[C@@H]3C[C@@H](c4ccc(C#N)cc4)CCO[C@H]32)[C@H](C)Cl)C(O)[C@@H](O)[C@H]1O (stereo partly drawn) [FSA-511046] | – | – | 32 µg/mL (≈ 59.3 µM) | 8 µg/mL (≈ 14.8 µM) | ≤ 0.06 µg/mL | – | > 64 µg/mL | ≤ 0.06 µg/mL | – | – | 1 µg/mL (≈ 1.85 µM) | 0.5 µg/mL (≈ 0.926 µM) | – | – | MIC (K. pneumoniae ATCC 10031): 16 µg/mL (≈ 29.6 µM); MIC (S. aureus ATCC 29213; S. aureus ATCC 29213): 1 µg/mL (≈ 1.85 µM); MIC (H. influenzae ATCC 49247): 16 µg/mL (≈ 29.6 µM)
